Calls of active or inactive are those of the source. How the calls were made is not given here.
Assay: modifiers of cytoskeleton assembly, confirmation, imaging, high-content imaging, retest and dose response (AID 1249);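 further: compound exposure lasted 24 h before fixation; plate controls were untreated cells for no effect and reference compound treated cells for full effect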
Conditions: cell-based imaging, cytoskeleton assembly phenotype, high content; at 2 µM; hits give high values

Row | Compound | inhibition
1 | CCCc1[nH]nc2c1C(c1cccnc1)C(C#N)=C(N)O2 (centres undefined) | -4.7% (inactive)
2 | O=C(CCS(=O)(=O)c1ccccc1)Nc1nc2c(s1)COc1ccccc1-2 | 6.6% (inactive)
3 | CCOC(=O)C1C(=O)NC(N2CCCCC2)=NC1c1ccco1 (centres undefined) | -0.9% (inactive)
4 | Cc1ccc2[nH]c3c(c2c1)CCC3=O | -8.6% (inactive)
5 | Cc1ccc(-n2ncc3c(N4CCN(c5ccccc5)CC4)ncnc32)c(C)c1 | -18.4% (inactive)
6 | CCOC(=O)c1ccc(NC(=O)Cn2nnc(-c3ccccc3)n2)cc1 | 1.3% (inactive)
7 | CC(CCc1ccccc1)NC(=O)c1ccc(Br)o1 (centres undefined) | -0.1% (inactive)
8 | CSc1nc2nccc(-c3ccc(Oc4ccccc4)cc3)n2n1 | -15.1% (inactive)
9 | O=c1c2ccccc2nnn1CSc1ncnc2ccccc12 | -4% (inactive)
10 | O=C(N/N=C/c1ccc[nH]1)c1sc2ccccc2c1Cl | -8.7% (inactive)
11 | Cc1cc(C)c(C#N)c(SCc2nc3ccccc3[nH]2)n1 | -5.7% (inactive)
12 | Cc1cc(/C=C2\SC(=Nc3ccc(F)cc3)NC2=O)c(C)n1-c1ccc(S(N)(=O)=O)cc1 | -17.9% (inactive)
13 | CCOC(=O)c1cc2c(ccn2C)n1Cc1ccccc1C | 2.4% (inactive)
14 | C=CCn1c(N2CCCC2)nc2c1c(=O)[nH]c(=O)n2C | -4.9% (inactive)
15 | CCOC(=O)c1cnn(-c2nc(-c3ccc(C)cc3)cs2)c1C(F)(F)F | -7.1% (inactive)
16 | O=C(Nc1ccc(Oc2ccccc2)cc1)C1CCCN(c2ncccn2)C1 (centres undefined) | 11.6% (inactive)
17 | O=C(NC1CC1)c1ccc(S(=O)(=O)NCC2CCCCC2)cc1 | -2.7% (inactive)
18 | COc1cccc(C(=O)COc2cccc(NC(=O)c3cccc([N+](=O)[O-])c3)c2)c1 | -2.2% (inactive)
19 | O=C(O)c1ccc(CNCc2ccccc2Cl)cc1 | 21.6% (inactive)
20 | C/C(Cl)=C\Cn1c(NCCCn2ccnc2)nc2c1c(=O)n(C)c(=O)n2C | -1.5% (inactive)
21 | CCC(C)Oc1cccc(OCCCCN2C(=O)NC(C)(C)C2=O)c1 (centres undefined) | -13.9% (inactive)
22 | NC(=O)COC(=O)CCCc1c[nH]c2ccccc12 | 2.3% (inactive)
23 | O=C(O)Cc1ccc(NC(=O)C2CC=CCC2C(=O)O)cc1 (centres undefined) | -9.1% (inactive)
24 | CCOC(=O)N1CCN(C(=O)COc2ccc(Cl)cc2C)CC1 | 0.3% (inactive)
25 | Cc1ccc(C)c(NC(=O)c2nnn(Cc3ccccc3)c2N)c1 | -0.1% (inactive)

Row | Compound | inhibition
26 | O=C(NCc1ccco1)c1ccc(CS(=O)(=O)Cc2ccc(Cl)cc2)o1 | -2.2% (inactive)
27 | COc1cc(C(=O)Nc2ccc(S(=O)(=O)NC(C)(C)C)cc2)cc(OC)c1OC | -3.5% (inactive)
28 | COc1ccccc1-c1cn(S(=O)(=O)c2ccc(C)cc2)nc1N | 7.9% (inactive)
29 | COc1ccc(Oc2cc(NC(=O)c3nn(C)cc3[N+](=O)[O-])cc([N+](=O)[O-])c2)cc1 | 11.6% (inactive)
30 | CC(/C=C/c1ccco1)=N\NC(=O)c1cc(C)[nH]n1 | -14.4% (inactive)
31 | CC(C)C(=O)N1CCN(c2nc(-c3ccccc3)c3c(c2C#N)CC(C)(C)OC3)CC1 | -5.6% (inactive)
32 | Cc1ccc(C(=O)CSc2nnc(COc3ccc(C#N)cc3)n2-c2ccccc2)cc1 | -3% (inactive)
33 | CC(Sc1nc(N)cc(=O)[nH]1)C(=O)NC1CCCCC1 (centres undefined) | 9% (inactive)
34 | Cc1ccc(CC2S/C(=C(/C#N)C(=O)NCc3ccco3)N(c3ccccc3)C2=O)cc1 (centres undefined) | 2.8% (inactive)
35 | O=S(=O)(c1ccc(Cl)cc1)c1snnc1-c1ccccc1 | 9.2% (inactive)
36 | Cc1ccc2nc(SCC(=O)Nc3cc(C(F)(F)F)ccc3N3CCOCC3)[nH]c2c1 | -6.4% (inactive)
37 | CC(C)CN(C(=O)COC(=O)CCc1c[nH]c2ccccc12)C1CCS(=O)(=O)C1 (centres undefined) | -23.6% (inactive)
38 | CCOC(=O)c1cnc(-n2nc(C)cc2C)nc1NCc1ccccc1 | -4.4% (inactive)
39 | COc1ccc(O)c(C=Nc2cc(C)on2)c1 | -0.2% (inactive)
40 | COC(=O)c1ccc(CSc2nnc(-c3ccncc3)n2Cc2ccccc2)o1 | 1.6% (inactive)
41 | O=C(CN1CCCCCC1=O)OCc1ncc(-c2ccccc2)o1 | -11.1% (inactive)
42 | O=C(Nc1cccnc1)c1coc(=O)c2ccccc12 | 8% (inactive)
43 | O=C(O)CCC(=O)NC1CCCCCCC1 | 3.8% (inactive)
44 | C=CCNC(=O)C1CC(=O)N(c2ccc(OCC(=O)Nc3cccc(OC)c3)cc2)C1 (centres undefined) | -2% (inactive)
45 | Cc1cc(C)cc(OCc2nnc(SCC(=O)N3CCN(c4ccccc4)CC3)o2)c1 | -9.6% (inactive)
46 | COc1cccc(CSc2nc3ccccc3cc2C=O)c1 | 3.2% (inactive)
47 | CCOc1cc(/C=N\NC(=O)Cc2ccccc2)ccc1OCC(=O)Nc1ccc(C)c(C)c1 | -0.8% (inactive)
48 | Cc1ccccc1NC1=C/C(=N\S(=O)(=O)c2cccs2)c2ccccc2C1=O | -3.8% (inactive)
49 | CC1=NNC(=O)/C1=C\c1cn(-c2ccccc2)nc1-c1ccc(Cl)cc1 | -11.5% (inactive)
50 | COc1ccc(CN2CCCCC2C(=O)Nc2ccc(OC)c(OCC(C)C)c2)cc1OC (centres undefined) | -2.9% (inactive)

Row | Compound | inhibition
51 | CCN1CCN(Cc2c(C)[nH]c3ccc(C(=O)OC)cc3c2=O)CC1 | -6.7% (inactive)
52 | O=C(Oc1csc(=S)n1C(=O)c1ccccc1)c1ccccc1 | -3% (inactive)
53 | CN(CC(=O)NCc1ccncc1)S(=O)(=O)c1ccc(F)cc1 | 2.2% (inactive)
54 | COc1cc2c(cc1OC)/C(=C/C#N)NC(C)(C)C2 | 1.8% (inactive)
55 | CN(Cc1ccccc1)C(=O)c1ccccc1NC(=O)c1ccccc1 | 5.1% (inactive)
56 | O=C(c1ccc([N+](=O)[O-])cc1)N(Cc1ccc(Cl)cc1)N1C(=O)CCCC1=O | -0.3% (inactive)
57 | CCn1c(SCC(=O)Nc2cc(C)on2)nnc1-c1ccccc1 | 0.6% (inactive)
58 | Cc1ncc(CO)c2cc(C(N)=O)c(=Nc3ccccc3)oc12 | -1.3% (inactive)
59 | COc1ccc(-c2cc3ccccc3oc2=O)cc1NC(=O)c1ccc([N+](=O)[O-])o1 | -8.3% (inactive)
60 | COc1ccc(Nc2nc(N3CCCC3)nc3ccccc23)c(OC)c1 | -12.3% (inactive)
61 | Cn1nc(C(=O)NCC2CCCO2)c2ccccc2c1=O (centres undefined) | 0% (inactive)
62 | O=c1n(Cc2ccccc2F)c2ccccc2n1Cc1ccccc1F | 5.3% (inactive)
63 | Oc1ccc(N=Nc2n[nH]c(-c3ccc(Cl)cc3)n2)cc1 | -2.5% (inactive)
64 | CCCOc1ccc(C(=O)C(CN2CCOCC2)c2ccccc2)cc1 (centres undefined) | 4.4% (inactive)
65 | O=[N+]([O-])c1cnccc1Nc1ccc(F)cc1 | 4.7% (inactive)
66 | COC(=O)c1c(NC(=O)c2ccc(S(=O)(=O)N3CCOCC3)cc2)sc2c1CCN(C)C2 | -2.4% (inactive)
67 | CCc1nnc(NC(=O)CSc2nnc(COc3ccccc3)n2-c2ccc(C)cc2)s1 | -4.1% (inactive)
68 | COc1cc(C2Nc3ccc4ncccc4c3C3=C2C(=O)CCC3)cc(OC)c1O (centres undefined) | 1.2% (inactive)
69 | CCCCCc1ccc(-c2ccc(=O)[nH]n2)cc1 | -6.9% (inactive)
70 | CCN1C(=O)c2cccc3c(S(=O)(=O)NCc4ccccn4)ccc1c23 | -20.8% (inactive)
71 | CCOc1ccc2ccccc2c1/C=N/n1cncn1 | 1.1% (inactive)
72 | Nc1nnc(SCC(=O)NCc2ccc3c(c2)OCO3)s1 | 3.6% (inactive)
73 | CCOc1ccc(-n2c(SCC(=O)Nc3ccc(OC)cc3)nc3c(c2=O)SCC3)cc1 | 7.9% (inactive)
74 | Cc1nc(NC(C)C)c2oc3ccccc3c2n1 | 4.2% (inactive)
75 | O=C(Nc1nccs1)c1cccc(N2C(=O)c3cccc4c([N+](=O)[O-])ccc(c34)C2=O)c1 | -8.2% (inactive)

Row | Compound | inhibition
76 | CCOC(=O)c1ccc(NS(=O)C23CC4CC(CC(C4)C2)C3)cc1 (centres undefined) | -10.9% (inactive)
77 | COC(=O)CCSc1nccn1Cc1ccccc1 | -9.8% (inactive)
78 | c1ccc(-c2nnc(CSc3nncs3)o2)cc1 | -7.1% (inactive)
79 | Cc1oc(-c2ccc(Cl)cc2)cc1-c1nn2c(-c3ccoc3C)nnc2s1 | 0.3% (inactive)
80 | NC(=S)N/N=C/c1ccc(-c2cc(Cl)ccc2Cl)o1 | -7.4% (inactive)
81 | Cc1ccc(-c2nc(NC(=O)c3nn(C)cc3[N+](=O)[O-])sc2C)cc1 | 5.1% (inactive)
82 | CC(C)Sc1nc2c(c(=O)n1-c1ccc(F)cc1)SCC2 | -6.3% (inactive)
83 | O=[N+]([O-])/C=C/c1c(OCc2ccccc2)ccc2ccccc12 | -14.2% (inactive)
84 | COc1cccc(C(=O)Nc2cccc(-c3nc4ncccc4o3)c2C)c1 | 1.2% (inactive)
85 | COc1cc2c(cc1OC)CN(C(=O)C(C)(C)C)CC2 | -1.3% (inactive)
86 | CCOC(=O)C1CCN(C(=O)c2cn(CCOC)c(=O)c3c2c2ccccc2n3C)CC1 | -1.6% (inactive)
87 | O=c1ccc(Oc2nc(N3CCOCC3)nc(N3CCOCC3)n2)nn1-c1ccccc1 | 9.9% (inactive)
88 | CCOc1ccc2[nH]c(C)c(CN3CCOCC3)c(=O)c2c1 | -4.5% (inactive)
89 | CCOC(=O)C1=C(CSc2nc3c(cc2C#N)CN(C)CC3)OC(N)=C(C#N)C1c1ccccc1 (centres undefined) | 1.4% (inactive)
90 | Cc1nccn1-c1ccc(C(F)(F)F)cc1NC=O | -12.8% (inactive)
91 | Cc1ccc(S(=O)(=O)c2cc(C#N)c(=O)[nH]c2N)cc1 | 9.1% (inactive)
92 | Cc1ccc(OCC(=O)N2CCN(C(=O)Cc3ccccc3)CC2)cc1 | -4.3% (inactive)
93 | Cc1nc([N+](=O)[O-])c(Br)n1CC(=O)c1ccc(Br)cc1 | -7.3% (inactive)
94 | Cc1cc(C)cc(OCC(=O)Nc2nonc2NC(=O)COc2cc(C)cc(C)c2)c1 | -12% (inactive)
95 | O=C(CS(=O)c1ccc(C(F)(F)F)cc1[N+](=O)[O-])Oc1ccc(Cl)cc1 (centres undefined) | 5.2% (inactive)
96 | CC(NC(=O)COC(=O)Cc1ccsc1)C1CC2CCC1C2 (centres undefined) | -7.6% (inactive)
97 | CCC(C)[C@@H](NC(=O)OC(C)(C)C)c1nnc(S(=O)(=O)Cc2cccc(C)c2)o1 (some centres undefined) | 1.2% (inactive)
98 | CCNC(=O)CCn1nc(-c2ccc(Cl)cc2)c2ccccc2c1=O | -0.2% (inactive)
99 | COc1ccc(-c2n[nH]c(=S)n2C2CCCCC2)cc1 | 5.3% (inactive)

From PubChem BioAssay AID1249 (Columbia University Molecular Screening Center, 2008)
